This is an account of results in patent US20140315933A1, “CHEMICAL COMPOUNDS” (Pfizer Limited, priority 2013, published 2014).

Structures can show the parent of a compound that is named as a salt.

The experiment deals with T1, URAT-1 transporter (Homo sapiens, UniProt Q96S37).
T1 construct: expressed in transfected cells
T1 sequence (Q96S37 with tags, fused parts or gaps): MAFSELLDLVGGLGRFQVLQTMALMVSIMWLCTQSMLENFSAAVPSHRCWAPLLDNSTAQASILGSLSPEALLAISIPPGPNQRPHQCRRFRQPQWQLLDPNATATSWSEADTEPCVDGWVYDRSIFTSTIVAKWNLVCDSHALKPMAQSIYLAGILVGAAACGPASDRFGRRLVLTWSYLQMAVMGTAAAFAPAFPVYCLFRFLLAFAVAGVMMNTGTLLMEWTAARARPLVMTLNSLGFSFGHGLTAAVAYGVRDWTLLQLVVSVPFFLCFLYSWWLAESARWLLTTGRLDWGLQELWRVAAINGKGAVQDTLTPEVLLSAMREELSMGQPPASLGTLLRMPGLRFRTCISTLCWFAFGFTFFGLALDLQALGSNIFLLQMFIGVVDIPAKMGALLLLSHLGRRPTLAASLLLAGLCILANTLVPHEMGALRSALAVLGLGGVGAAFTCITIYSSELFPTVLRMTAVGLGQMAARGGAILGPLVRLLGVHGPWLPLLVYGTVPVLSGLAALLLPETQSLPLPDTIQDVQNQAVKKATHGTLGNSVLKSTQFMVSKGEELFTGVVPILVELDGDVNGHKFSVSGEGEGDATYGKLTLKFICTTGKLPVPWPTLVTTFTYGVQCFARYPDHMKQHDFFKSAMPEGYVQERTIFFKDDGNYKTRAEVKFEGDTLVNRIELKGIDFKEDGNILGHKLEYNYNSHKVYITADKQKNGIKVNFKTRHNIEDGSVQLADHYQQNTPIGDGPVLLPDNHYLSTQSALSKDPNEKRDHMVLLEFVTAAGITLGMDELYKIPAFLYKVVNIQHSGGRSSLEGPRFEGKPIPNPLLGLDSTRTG
In words: URAT-1 inhibitor activity: [14C]-uric acid uptake into CHO-URAT1(L)GFP#8 (CHO#8) cells, scintillation proximity. The class given is cell-based. In a few lines: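 CHO cells stably expressing human URAT1 long isoform C-terminally fused to eGFP, preincubated 1 hour in chloride-containing buffer, then 15 minutes with compound (0–10 μM, 0.25% DMSO) in chloride-free buffer pH 7.4. [14C]-uric acid at 30 nM final added; uptake read by scintillation proximity after three hours at room temperature, dark.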
For orientation: IC50 means the concentration needed to halve the response being measured. A higher IC50 goes with weaker potency. Take `COc1ccc(Oc2ccc(S(=O)(=O)Nc3ncns3)cc2C#N)cn1` [Example 20, 3-cyano-4-[(6-methoxypyridin-3-yl)oxy]-N-(1,2,4-thiadiazol-5-yl)benzenesulfonamide]: the IC50 was above 7520 nM. Next, `COc1cc(Cl)ccc1Oc1ccc(S(=O)(=O)Nc2ncns2)cc1C#N` [compound 267]: 930 nM; `N#Cc1cc(S(=O)(=O)Nc2ncc(Cl)s2)ccc1Oc1ccc(F)c(F)c1` [compound 197, N-(5-chloro-1,3-thiazol-2-yl)-3-cyano-4-(3,4-difluorophenoxy)benzenesulfonamide]: 225 nM; `N#Cc1cc(S(=O)(=O)Nc2ncc(F)s2)ccc1Oc1c(F)cccc1Cl` [Example 125, 4-(2-chloro-6-fluorophenoxy)-3-cyano-N-(5-fluoro-1,3-thiazol-2-yl)benzenesulfonamide]: 551 nM. In the case of `COc1cccc(Oc2ccc(S(=O)(=O)Nc3ncc(F)s3)cc2C#N)c1` [Example 109, 3-cyano-N-(5-fluoro-1,3-thiazol-2-yl)-4-(3-methoxyphenoxy)benzenesulfonamide], the IC50 came to 552 nM. Next, `CC(C)(F)COc1ncc(Oc2ccc(S(=O)(=O)Nc3nncs3)cc2C#N)cc1Cl` [Example 339]: above 10000 nM.

In the case of `N#Cc1cc(S(=O)(=O)Nc2ncns2)ccc1Oc1cncc(Cl)c1` [Example 19, 4-[(5-chloropyridin-3-yl)oxy]-3-cyano-N-(1,2,4-thiadiazol-5-yl)benzenesulfonamide], the IC50 was above 10000 nM.

`N#Cc1cc(Oc2ccc(S(=O)(=O)Nc3cscn3)cc2I)ccc1F` [compound 240]: 577 nM corresponded to half-maximal inhibition (IC50). In turn, `COc1c(F)ccc(Oc2cc(F)c(S(=O)(=O)Nc3nncs3)cc2Cl)c1Cl` [compound 329] gave an IC50 of 606 nM.

In turn, `COc1cccc(Cl)c1Oc1ccc(S(=O)(=O)Nc2ncns2)cc1C#N` [compound 263] returned a 50% inhibitory concentration (IC50) of 2250 nM. The figure for `CC(C)c1cccc(Oc2ccc(S(=O)(=O)Nc3ncns3)cc2C#N)c1` [Example 14, 3-cyano-4-[3-(propan-2-yl)phenoxy]-N-(1,2,4-thiadiazol-5-yl)benzenesulfonamide diethylamine salt] is above 2900 nM; for `CCOc1cc(C)ccc1Oc1ccc(S(=O)(=O)Nc2ncns2)cc1C#N` [compound 259] it is 3130 nM; for `N#Cc1ccc(OC(F)F)c(Oc2ccc(S(=O)(=O)Nc3ncns3)cc2C#N)c1` [Example 24, 3-cyano-4-[5-cyano-2-(difluoromethoxy)phenoxy]-N-(1,2,4-thiadiazol-5-yl)benzenesulfonamide diethylamine salt] it is above 10000 nM. Next, `N#Cc1cc(S(=O)(=O)Nc2ncc(F)s2)ccc1Oc1ccc(F)cc1Cl` [Example 130, 4-(2-chloro-4-fluorophenoxy)-3-cyano-N-(5-fluoro-1,3-thiazol-2-yl)benzenesulfonamide]: 414 nM. The figure for `N#Cc1cc(S(=O)(=O)Nc2ncc(F)s2)ccc1Oc1ccc(F)c(Cl)c1` [Example 111, 4-(3-chloro-4-fluorophenoxy)-3-cyano-N-(5-fluoro-1,3-thiazol-2-yl)benzenesulfonamide] is 871 nM; for `O=S(=O)(Nc1cscn1)c1cc(Cl)c(Oc2cc(C(F)(F)F)ccc2I)cc1F` [Example 160, 5-chloro-2-fluoro-4-[2-iodo-5-(trifluoromethyl)phenoxy]-N-(1,3-thiazol-4-yl)benzene-sulfonamide] it is 347 nM. For `CCc1ccccc1Oc1ccc(S(=O)(=O)Nc2ncc(F)s2)cc1C#N` [Example 108, 3-cyano-4-(2-ethylphenoxy)-N-(5-fluoro-1,3-thiazol-2-yl)benzenesulfonamide], the IC50 was determined as 345 nM.

In turn, `COc1cccc(Oc2ccc(S(=O)(=O)Nc3ncns3)cc2C#N)c1C` [compound 293] gave an IC50 above 6150 nM. Next, `N#Cc1cc(Cl)ccc1Oc1ccc(S(=O)(=O)Nc2ncns2)cc1C#N` [Example 22, 4-(4-chloro-2-cyanophenoxy)-3-cyano-N-(1,2,4-thiadiazol-5-yl)benzenesulfonamide]: 3160 nM; `N#Cc1cc(Oc2ccc(S(=O)(=O)Nc3ncns3)cc2F)ccc1F` [compound 194]: above 7150 nM. Next, `O=S(=O)(Nc1cscn1)c1cc(Cl)c(Oc2ccc(Cl)cc2OC(F)F)cc1F` [Example 159, 5-chloro-4-[4-chloro-2-(difluoromethoxy)phenoxy]-2-fluoro-N-(1,3-thiazol-4-yl)benzenesulfonamide]: 499 nM; `N#Cc1ccc(Oc2ccc(S(=O)(=O)Nc3ncc(F)s3)cc2C#N)cc1Cl` [Example 244, 4-(3-chloro-4-cyanophenoxy)-3-cyano-N-(5-fluoro-1,3-thiazol-2-yl)benzenesulfonamide]: 365 nM. Regarding `CCc1cc(F)ccc1Oc1cc(F)c(S(=O)(=O)Nc2cscn2)cc1Br` [Example 78, 5-bromo-4-(2-ethyl-4-fluorophenoxy)-2-fluoro-N-(1,3-thiazol-4-yl)benzenesulfonamide], the IC50 is 165 nM. Next, `CCc1ncccc1Oc1ccc(S(=O)(=O)Nc2ncns2)cc1C#N` [compound 273, trifluoroacetic acid salt]: above 10000 nM. `N#Cc1ccc(Oc2cc(F)c(S(=O)(=O)Nc3cscn3)cc2F)cc1Cl` [compound 231] yielded an IC50 above 10000 nM. Next, `O=S(=O)(Nc1nncs1)c1ccc(Oc2ccc(F)c(F)c2)cc1Cl` [Example 249, 2-chloro-4-(3,4-difluorophenoxy)-N-(1,3,4-thiadiazol-2-yl)benzenesulfonamide]: above 10000 nM; `N#Cc1cc(S(=O)(=O)Nc2ncc(F)s2)ccc1Oc1c(F)ccc(F)c1F` [Example 115, 3-cyano-N-(5-fluoro-1,3-thiazol-2-yl)-4-(2,3,6-trifluorophenoxy)benzenesulfonamide]: 1630 nM. The figure for `N#Cc1ccc(Oc2ccc(S(=O)(=O)Nc3ncns3)cc2C#N)c(F)c1` [Example 51, 3-cyano-4-(4-cyano-2-fluorophenoxy)-N-(1,2,4-thiadiazol-5-yl)benzenesulfonamide] is 2140 nM; for `Cc1cc(Oc2ccc(S(=O)(=O)Nc3nncs3)cc2C#N)cc(C)c1C#N` [Example 337, 3-cyano-4-(4-cyano-3,5-dimethylphenoxy)-N-(1,3,4-thiadiazol-2-yl)benzenesulfonamide] it is 112 nM. The figure for `CCNc1ccc(Oc2ccc(S(=O)(=O)Nc3nccs3)cc2C#N)cn1` [Example 189, 3-cyano-4-{[6-(ethylamino)pyridin-3-yl]oxy}-N-(1,3-thiazol-2-yl)benzenesulfonamide] is above 10000 nM; for `Cc1cc(F)ccc1Oc1ccc(S(=O)(=O)Nc2ncns2)cc1C#N` [Example 39, 3-cyano-4-(4-fluoro-2-methylphenoxy)-N-(1,2,4-thiadiazol-5-yl)benzenesulfonamide] it is 994 nM.

Take `CCOc1ccccc1Oc1ccc(S(=O)(=O)Nc2ncns2)cc1C#N` [compound 281]: the IC50 was found to be 3250 nM. The figure for `COc1cccc(C)c1Oc1cc(F)c(S(=O)(=O)Nc2nncs2)cc1Cl` [compound 321] is 275 nM; for `COc1ccc(Oc2ccc(S(=O)(=O)Nc3ncns3)cc2C#N)c(Cl)c1` [compound 290] it is 1100 nM; for `N#Cc1cc(S(=O)(=O)Nc2ncc(Cl)s2)ccc1Oc1ccc(C(F)(F)F)cc1` [Example 88, N-(5-chloro-1,3-thiazol-2-yl)-3-cyano-4-[4-(trifluoromethyl)phenoxy]benzenesulfonamide] it is above 6720 nM.
